Data reported in ChEMBL document CHEMBL1201862, “PubChem BioAssay data set” (2004).
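48-hour exposure; five concentrations; linearly interpolated endpoints. GI50 is the concentration that inhibits growth by half.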 Active and inactive are the calls of the source. Cut-off read from the data, not from the text of the source: active = GI50 up to about 1.1 µM and inactive = higher.

What was measured:
Test in all cases: NCI-60 cell line screen, 48 h
ACHN = tested on: ACHN
EKVX = tested on: EKVX
SF-268 = tested on: SF-268
LOX IMVI = tested on: LOX IMVI
SF-539 = tested on: SF-539
NCI/ADR-RES = tested on: NCI/ADR-RES
OVCAR-3 = tested on: OVCAR-3
CAKI-1 = tested on: CAKI-1
SK-MEL-2 = tested on: SK-MEL-2
MDA-MB-231 = tested on: MDA-MB-231
OVCAR-4 = tested on: OVCAR-4
UO-31 = tested on: UO-31
UACC-62 = tested on: UACC-62
HOP-62 = tested on: HOP-62
SNB-75 = tested on: SNB-75
SR = tested on: SR
COLO 205 = tested on: COLO 205
KM12 = tested on: KM12
SN12C = tested on: SN12C
MDA-MB-435 = tested on: MDA-MB-435

Row | SMILES | GI50 (ACHN) | GI50 (EKVX) | GI50 (SF-268) | GI50 (LOX IMVI) | GI50 (SF-539) | GI50 (NCI/ADR-RES) | GI50 (OVCAR-3) | GI50 (CAKI-1) | GI50 (SK-MEL-2) | GI50 (MDA-MB-231) | GI50 (OVCAR-4) | GI50 (UO-31) | GI50 (UACC-62) | GI50 (HOP-62) | GI50 (SNB-75) | GI50 (SR) | GI50 (COLO 205) | GI50 (KM12) | GI50 (SN12C) | GI50 (MDA-MB-435)
1 | O=C(CCl)Nc1ccc(C(=O)N/N=C/c2ccc(Cl)cc2)cc1 | 2.59 µM (inactive) | 2.19 µM (inactive) | 2.07 µM (inactive) | 1.48 µM (inactive) | 2.01 µM (inactive) | 2.37 µM (inactive) | 1.84 µM (inactive) | 2.82 µM (inactive) | 5.58 µM (inactive) | 1.94 µM (inactive) | 2.09 µM (inactive) | 4.46 µM (inactive) | 3.56 µM (inactive) | 3.52 µM (inactive) | 14.9 µM (inactive) | 1.79 µM (inactive) | 0.731 µM (active) | 0.889 µM (active) | 2.84 µM (inactive) | 1.82 µM (inactive)
2 | CN(C)CCNC(=O)c1ccc(NCCCN(C)CCCNc2ccc3c(=O)n(CCN(C)C)c(=O)n4c5ccccc5c(=O)c2c34)c2c(O)c3ccccc3nc12 | < 0.01 µM (active) | 0.16 µM (active) | < 0.01 µM (active) | < 0.01 µM (active) | 0.138 µM (active) | 0.221 µM (active) | < 0.011 µM (active) | 0.0258 µM (active) | 0.0315 µM (active) | < 0.027 µM (active) | < 0.01 µM (active) | < 0.01 µM (active) | 0.0678 µM (active) | < 0.01 µM (active) | < 0.01 µM (active) | < 0.01 µM (active) | < 0.0108 µM (active) | < 0.01 µM (active) | < 0.01 µM (active) | 0.0124 µM (active)
3 | C=C1C2CC3CCC2C(OC(=O)c2ccccc2C(=O)O)C13 (stereo not given) | > 100 µM (inactive) | > 100 µM (inactive) | > 100 µM (inactive) | > 100 µM (inactive) | > 100 µM (inactive) | > 100 µM (inactive) | 95.9 µM (inactive) | > 100 µM (inactive) | > 100 µM (inactive) | > 100 µM (inactive) | > 100 µM (inactive) | > 100 µM (inactive) | > 100 µM (inactive) | > 100 µM (inactive) | 3.1 µM (inactive) | > 100 µM (inactive) | > 100 µM (inactive) | > 100 µM (inactive) | > 100 µM (inactive) | > 100 µM (inactive)
4 | O=C1CSC(/C=C/c2ccccc2)N1c1ccc(-n2c(-c3ccccc3)nc3ccccc3c2=O)cc1 (stereo not given) | > 10 µM (inactive) | > 100 µM (inactive) | 95.5 µM (inactive) | 95.3 µM (inactive) | 71.4 µM (inactive) | 59.2 µM (inactive) | > 100 µM (inactive) | > 100 µM (inactive) | > 100 µM (inactive) | > 100 µM (inactive) | 19.4 µM (inactive) | 16.8 µM (inactive) | 45.1 µM (inactive) | 42.7 µM (inactive) | 22.6 µM (inactive) | 37.1 µM (inactive) | > 100 µM (inactive) | 33.1 µM (inactive) | > 100 µM (inactive) | > 100 µM (inactive)
5 | Cn1c(=O)c2nc(CCCCc3nc4ccccc4[nH]3)[nH]c2n(C)c1=O | > 100 µM (inactive) | > 100 µM (inactive) | > 100 µM (inactive) | > 100 µM (inactive) | 17 µM (inactive) | > 100 µM (inactive) | > 100 µM (inactive) | 50.8 µM (inactive) | > 100 µM (inactive) | > 100 µM (inactive) | > 100 µM (inactive) | 35.4 µM (inactive) | > 100 µM (inactive) | > 100 µM (inactive) | 30.1 µM (inactive) | > 100 µM (inactive) | > 100 µM (inactive) | > 100 µM (inactive) | > 100 µM (inactive) | > 100 µM (inactive)
6 | O=C(Nc1ccc2ncccc2c1)c1cc2c(cc1Cl)Sc1nccn1S2(=O)=O | 31.2 µM (inactive) | 19.1 µM (inactive) | 18.1 µM (inactive) | 12.9 µM (inactive) | 20 µM (inactive) | 19 µM (inactive) | 21.7 µM (inactive) | 22 µM (inactive) | 17.3 µM (inactive) | 20.4 µM (inactive) | 26.2 µM (inactive) | 18.2 µM (inactive) | 16.6 µM (inactive) | 16.4 µM (inactive) | 15.3 µM (inactive) | 4.36 µM (inactive) | 18.7 µM (inactive) | 6.4 µM (inactive) | 17.5 µM (inactive) | 4 µM (inactive)
7 | CN(C)/C=N/NC(=O)/C(C#N)=C/N(C)C | > 100 µM (inactive) | > 100 µM (inactive) | > 100 µM (inactive) | > 100 µM (inactive) | 64.7 µM (inactive) | > 100 µM (inactive) | > 100 µM (inactive) | > 100 µM (inactive) | > 100 µM (inactive) | > 100 µM (inactive) | > 100 µM (inactive) | > 100 µM (inactive) | > 100 µM (inactive) | > 100 µM (inactive) | > 100 µM (inactive) | > 100 µM (inactive) | > 100 µM (inactive) | > 100 µM (inactive) | > 100 µM (inactive) | > 100 µM (inactive)
8 | CC(C)OC(=O)c1ccc(CCc2cc(O)c(Br)cc2O)cc1 | 18 µM (inactive) | 15.3 µM (inactive) | 10.1 µM (inactive) | 8.04 µM (inactive) | 7.36 µM (inactive) | 9.2 µM (inactive) | 8.11 µM (inactive) | 11.4 µM (inactive) | 13.1 µM (inactive) | 12 µM (inactive) | 2.31 µM (inactive) | 5.52 µM (inactive) | 20.2 µM (inactive) | 12.3 µM (inactive) | 21 µM (inactive) | 23.7 µM (inactive) | 15.2 µM (inactive) | 6.56 µM (inactive) | 13.4 µM (inactive) | 8.11 µM (inactive)
